According to patent US10588952B2, “Conjugate vaccine using trimming function of ERAP1” (SUMITOMO DAINIPPON PHARMA CO., LTD., priority 2013, dated 2020):
Converted amounts (≈) assume the structure as drawn. Each block holds one compound with its values, some of them ahead of it.

Assays:
[1] = biological target: T1, ERAP1 (Homo sapiens, UniProt Q9NZ08); assay: Time-course changes of trimming of N-terminal amino acid by ERAP1 (Experimental Example 2); format: biochemical; conditions: peptide obtained by trimming (SEQ ID NO: 53, 43 or 19), ERAP1 solution 0.5 mg/ml, room temperature
Procedure: 20 μl of ERAP1 solution (0.5 mg/ml) in Tris.HCl buffer was added to 172 μl of Tris.HCl buffer. 10 mM peptide solution in DMSO (8.0 μl) was added to the aforementioned ERAP1 solution, and the mixture was blended well and stood at room temperature. […]
pump: UFLC manufactured by Shimadzu column: Shim-pack XR-ODS 3.0 mmi.d.×75 mm solution: 0.05% TFA H2O(A)-0.05% TFA CH3CN(B) […]
detection wavelength: λ=220 nm gradient: Concentration of SOLUTION B was raised from 1.0% 70% from 0.0 min to 5.0 min […]
The peptide to be obtained by the trimming of the N-terminal amino acid(s) by ERAP1 is, […]

[2] = biological target: T1, ERAP1; assay: Test of trimming of N-terminal amino acid by ERAP1 (Experimental Example 10, Examples 85-103); format: biochemical; conditions: MAGE-A10 254-262 peptide obtained by ERAP1 trimming; from HPLC AUC
Procedure: The peptides synthesized in Examples 85-103 were evaluated for N-terminal amino acid trimming efficiency using ERAP1. 50 μl of ERAP1 solution (10 μg/ml) in pH 8.0, 20 mM Tris.HCl-100 mM NaCl buffer (Tris.HCl buffer) was added to 142 μl of Tris.HCl buffer. 10 mM peptide solution in DMSO (2.0 μl) and 6.0 μL of DMSO were added to the aforementioned ERAP1 solution, and the mixture was blended well and stood at 30° C. […] The peptide to be obtained by trimming was chemically synthesized separately, and analyzed under similar conditions in the absence of the enzyme. The formation ratio of the peptide [MAGE-A10254-262 peptide ([…]) (SEQ ID NO: 19)] obtained by trimming was determined based on the obtained AUC, and is shown in Tables 45 and 46. […]
(§1) pump: UFLC manufactured by Shimadzu […]
(§2) solution: 0.1% TFA H2O(A)-0.1% TFA CH3CN(B) […]
(§3) detection wavelength: λ=220 nm gradient: concentration of SOLUTION B was raised from 10% to 50% from 0.0 min to 8.5 min

[3] = biological target: T1, ERAP1; assay: Test of trimming of N-terminal amino acid by ERAP1 (Experimental Example 11, Examples 50, 56, 64, 67); format: biochemical; conditions: Proteinase-3 169-177 peptide obtained by ERAP1 trimming; from HPLC AUC
Procedure: (§4) The peptides synthesized in Examples 50, 56, 64 and 67 were evaluated for N-terminal amino acid trimming efficiency using ERAP1. 50 μl of ERAP1 solution (10 μg/ml) in pH 8.0, 20 mM Tris.HCl-100 mM NaCl buffer (Tris.HCl buffer) was added to 142 μl of Tris.HCl buffer. 10 mM peptide solution in DMSO (2.0 μl) and 6.0 μL of DMSO were added to the aforementioned ERAP1 solution, and the mixture was blended well and stood at 30° C. […] The peptide to be obtained by trimming was chemically synthesized separately, and analyzed under similar conditions in the absence of the enzyme. […]
as §1, §2, §3

[4] = biological target: T1, ERAP1; assay: Test of trimming of N-terminal amino acid by ERAP1 (Experimental Example 9, Examples 69-84); format: biochemical; conditions: MAGE-A10 254-262 peptide obtained by ERAP1 trimming; from HPLC AUC;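 further: peptide incubated with ERAP1 for 1 h before HPLC analysis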
Procedure: as §4, with “69-84” for “50, 56, 64 and 67”, “peptide” for “peptide to be”
as §1, §2, §3

[5] = physchem
Procedure: To prepare a test solution, about 1 mg of a test product was measured and the isotonic buffer (0.5 mL) was added thereto. The prepared solution was shaken at room temperature for 90 min (shaking conditions: RECIPRO SHAKER SR-1N manufactured by TAITEC, Speed=8), centrifuged (15000 rpm, 5 min, room temperature), and the supernatant after centrifugation was used as a test solution.
About 1 mg of the test product was accurately measured, dissolved in 0.1% TFA water/acetonitrile=1/1, made the total amount 10 mL, and this was used as a standard solution of the test product.
The standard solution of the test product and the test solution are analyzed by HPLC (under the analysis conditions described in Table 34), and the solubility of the test product is calculated from the ratio of peak area compared to the standard solution.
column: Chemcopack Quicksorb (4.6 mmφ×150 mm, 5 μm)
manufactured by Chemco Scientific Co., Ltd.
mobile phase: SOLUTION A; 0.1% TFA water, SOLUTION B;
0.1% TFA acetonitrile solution
column temperature: room temperature
detection wavelength: UV 254 nm, 230 nm (2 wavelength detection)
sample injection volume: 10

T1 sequence (Q9NZ08 whole entry): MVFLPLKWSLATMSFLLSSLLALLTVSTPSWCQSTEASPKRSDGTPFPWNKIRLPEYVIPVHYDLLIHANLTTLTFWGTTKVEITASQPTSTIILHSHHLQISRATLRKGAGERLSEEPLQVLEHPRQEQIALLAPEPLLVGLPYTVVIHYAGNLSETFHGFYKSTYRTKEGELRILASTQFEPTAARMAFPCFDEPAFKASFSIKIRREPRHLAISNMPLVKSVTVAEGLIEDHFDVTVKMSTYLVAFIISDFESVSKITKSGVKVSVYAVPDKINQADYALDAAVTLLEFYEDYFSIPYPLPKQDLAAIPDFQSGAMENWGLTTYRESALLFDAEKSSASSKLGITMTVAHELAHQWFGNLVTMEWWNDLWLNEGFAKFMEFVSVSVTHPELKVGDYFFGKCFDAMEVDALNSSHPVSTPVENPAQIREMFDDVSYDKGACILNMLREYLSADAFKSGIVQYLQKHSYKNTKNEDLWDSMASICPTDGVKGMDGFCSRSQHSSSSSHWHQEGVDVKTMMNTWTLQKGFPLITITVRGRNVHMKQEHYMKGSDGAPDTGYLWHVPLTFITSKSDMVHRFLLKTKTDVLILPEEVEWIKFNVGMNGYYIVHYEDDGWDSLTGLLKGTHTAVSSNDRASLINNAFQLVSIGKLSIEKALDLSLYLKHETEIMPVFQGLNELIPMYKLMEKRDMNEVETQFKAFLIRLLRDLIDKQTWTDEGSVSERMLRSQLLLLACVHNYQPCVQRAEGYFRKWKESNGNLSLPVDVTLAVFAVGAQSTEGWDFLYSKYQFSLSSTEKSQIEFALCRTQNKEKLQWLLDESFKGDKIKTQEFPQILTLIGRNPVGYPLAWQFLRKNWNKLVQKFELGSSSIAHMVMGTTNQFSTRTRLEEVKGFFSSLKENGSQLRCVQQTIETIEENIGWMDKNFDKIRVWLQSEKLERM

- formation rate(%) 1 hr later [1]: 90.6%
- formation rate(%) 2 hr later [1]: 103%
- formation rate(%) 4 hr later [1]: 96.0%
- formation rate(%) 8 hr later [1]: 101%
Compound: H-CMGLYDGMEHL-OH [Example 28]

- formation rate of GLYDGMEHL (SEQ ID NO: 19) [2]: 2.4%
Compound: H-VCGLYDGMEHL-OH [Example 91]

- formation rate of GLYDGMEHL (SEQ ID NO: 19) [2]: 19.2%
Compound: H-PCGLYDGMEHL-OH [Example 86]

- formation rate of VLQELNVTV (SEQ ID NO: 43) [3]: 0.7%
Compound: H-YCVLQELNVTV-OH [Example 67]

- formation rate of GLYDGMEHL (SEQ ID NO: 19) [4]: 0.0%
Compound: H-CWGLYDGMEHL-OH [Example 78]

- formation rate of GLYDGMEHL (SEQ ID NO: 19) [2]: 0.0%
Compound: H-KCGLYDGMEHL-OH [Example 101]

- formation rate(%) 1 hr later [1]: 31.1%
- formation rate(%) 2 hr later [1]: 36.9%
- formation rate(%) 4 hr later [1]: 38.1%
- formation rate(%) 8 hr later [1]: 36.1%
Compound: H-CLVLQELNVTV-OH [Example 23]

- formation rate of GLYDGMEHL (SEQ ID NO: 19) [2]: 10.4%
Compound: H-GCGLYDGMEHL-OH [Example 97]

- formation rate(%) 1 hr later [1]: 46.1%
- formation rate(%) 2 hr later [1]: 49.9%
- formation rate(%) 4 hr later [1]: 51.3%
- formation rate(%) 8 hr later [1]: 53.5%
Compound: H-CAVLQELNVTV-OH [Example 22]

- formation rate of GLYDGMEHL (SEQ ID NO: 19) [2]: 5.7%
Compound: H-YCGLYDGMEHL-OH [Example 90]

- formation rate of GLYDGMEHL (SEQ ID NO: 19) [4]: 0.0%
Compound: H-CRGLYDGMEHL-OH [Example 81]

- formation rate(%) 1 hr later [1]: 58.3%
- formation rate(%) 2 hr later [1]: 94.9%
- formation rate(%) 4 hr later [1]: 88.4%
- formation rate(%) 8 hr later [1]: 88.3%
Compound: H-CLGLYDGMEHL-OH [Example 27]

- formation rate of GLYDGMEHL (SEQ ID NO: 19) [4]: 0.0%
Compound: H-CYGLYDGMEHL-OH [Example 79]

- formation rate of GLYDGMEHL (SEQ ID NO: 19) [4]: 82.2%
Compound: H-CNGLYDGMEHL-OH [Example 82]

- formation rate of GLYDGMEHL (SEQ ID NO: 19) [2]: 7.3%
Compound: H-TCGLYDGMEHL-OH [Example 88]

- formation rate of GLYDGMEHL (SEQ ID NO: 19) [4]: 6.2%
Compound: H-CEGLYDGMEHL-OH [Example 70]

Compound: CC[C@H](C)[C@H](NC(=O)[C@H](CCCCN)NC(=O)[C@@H](N)CSSC[C@H](N)C(=O)N[C@H](C)C(=O)N[C@@H](CCCCN)C(=O)N[C@@H](Cc1ccccc1)C(=O)N[C@H](C(=O)N[C@@H](C)C(=O)N[C@@H](C)C(=O)N[C@@H](Cc1c[nH]c2ccccc12)C(=O)N[C@H](C(=O)N[C@@H](CC(C)C)C(=O)N[C@@H](CCCCN)C(=O)N[C@@H](C)C(=O)N[C@@H](C)C(=O)N[C@H](C)C(=O)O)[C@@H](C)O)C(C)C)C(=O)N[C@@H](Cc1ccccc1)C(=O)NCC(=O)N[C@@H](CO)C(=O)N[C@@H](CC(C)C)C(=O)N[C@@H](C)C(=O)N[C@@H](Cc1ccccc1)C(=O)N[C@@H](CC(C)C)C(=O)O [Example 112]
- solubility thermodynamic at 90 min ([5]; pH 6): < 1 µg/mL
- solubility thermodynamic at 90 min ([5]; pH 7.4): 2 µg/mL (≈ 0.785 µM)

- formation rate of GLYDGMEHL (SEQ ID NO: 19) [2]: 0.0%
Compound: H-ICGLYDGMEHL-OH [Example 99]

- formation rate of GLYDGMEHL (SEQ ID NO: 19) [4]: 25.0%
Compound: H-CDGLYDGMEHL-OH [Example 83]

- formation rate(%) 1 hr later [1]: 28.7%
- formation rate(%) 2 hr later [1]: 34.5%
- formation rate(%) 4 hr later [1]: 36.5%
- formation rate(%) 8 hr later [1]: 36.8%
Compound: H-CMVLQELNVTV-OH [Example 24]

- formation rate of GLYDGMEHL (SEQ ID NO: 19) [4]: 0.0%
Compound: H-CVGLYDGMEHL-OH [Example 80]

- formation rate of GLYDGMEHL (SEQ ID NO: 19) [4]: 89.4%
Compound: H-CTGLYDGMEHL-OH [Example 77]

- formation rate of GLYDGMEHL (SEQ ID NO: 19) [2]: 17.6%
Compound: H-FCGLYDGMEHL-OH [Example 103]

- formation rate of GLYDGMEHL (SEQ ID NO: 19) [4]: 0.4%
Compound: H-CIGLYDGMEHL-OH [Example 73]
